Earlier results in patent US11191839B2, “Composition for treatment of infertility in a subject” (priority 2015, dated 2021).

Tested on: couples with unexplained infertility
Settings: pertubation with low doses before artificial insemination; Edelstam et al. 2008

CCN(CC)CC(=O)Nc1c(C)cccc1C [lidocaine, Lidocaine]
Pregnancy rates: increase pregnancy rates
